# Paper PMC8717366, “Synthesis and Pharmacological Characterization of Visabron, a Backbone Cyclic Peptide Dual Antagonist of α4β1 (VLA-4)/α9β1 Integrin for Therapy of Multiple Sclerosis” (JACS Au, 2021)
# Numbered stars: 1 amine (or outer) side, 2 acyl side, 3 side chain; on linkers, the order of the positions; unused ones are H or OH. Bridge positions count the residues as written; N and C are the ends. Square brackets hold non-standard residues; d marks the D form. Peptide text beside a SMILES is read from it. CO = O=C([*:1])[*:2]; Nlys = NCCCCNCC(=O)O
# Key:
# [1] = Single-dose toxicity: blood cell counting and biochemistry analyses; assay type: in vivo, C57BL/6 male mice
# Lck kinase = target: T1, Lck kinase (Homo sapiens, UniProt P06239); assay: SafetyScreen44 enzyme inhibition, Lck kinase; assay type: biochemical
# T1 construct: purchased Eurofins Cerep-Panlabs (contract screen) SafetyScreen44
# T1 sequence (P06239 whole entry): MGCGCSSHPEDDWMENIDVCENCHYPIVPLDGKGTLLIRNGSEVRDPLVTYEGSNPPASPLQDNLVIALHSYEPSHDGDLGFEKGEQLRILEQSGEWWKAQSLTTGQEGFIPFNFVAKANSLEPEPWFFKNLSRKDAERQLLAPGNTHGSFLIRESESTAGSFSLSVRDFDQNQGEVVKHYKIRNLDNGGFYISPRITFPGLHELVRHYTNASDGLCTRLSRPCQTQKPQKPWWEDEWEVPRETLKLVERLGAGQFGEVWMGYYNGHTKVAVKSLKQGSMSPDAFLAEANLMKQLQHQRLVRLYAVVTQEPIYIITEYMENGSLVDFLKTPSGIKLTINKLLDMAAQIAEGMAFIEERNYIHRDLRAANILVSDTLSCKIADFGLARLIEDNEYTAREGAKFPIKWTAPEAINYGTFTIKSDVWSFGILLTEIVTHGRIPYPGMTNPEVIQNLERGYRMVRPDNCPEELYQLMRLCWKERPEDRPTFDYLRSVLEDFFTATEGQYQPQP
# Experimental: Screening of potentially significant off-target effects to binding and enzyme targets was performed via SafetyScreen44 offered by Eurofins Cerep-Panlabs. Visabron c (4–4) was tested at 1 and 0.1 mM. Compound binding was calculated as the percentage of inhibition of the binding of a radioactively labeled ligand specific for each target. The compound enzyme inhibitory effect was calculated as the percentage of inhibition of control enzyme activity. Results showing inhibition higher than 40% were considered to represent significant effects of the tested compound. Results showing inhibition lower than 25% as obtained with 0.1 mM Visabron c (4–4) were not considered significant and were mostly attributable to the variability of the signal around the control level. In each experiment, the respective reference compound was tested concurrently with visabron c (4–4), and the data were compared with historical values determined at Eurofins. The experiment was statistically accepted in accordance with the Eurofins validation standard operating procedure.
# EGFR = target: T2, EGFR (Homo sapiens, UniProt P00533); assay: PhosphoSens CSox-based kinase assay, EGFR; assay type: biochemical; conditions: 1 mM, but not 0.1 mM; Figure 7
# T2 construct: purchased BPS BS 40187
# T2 sequence (P00533 25-1210): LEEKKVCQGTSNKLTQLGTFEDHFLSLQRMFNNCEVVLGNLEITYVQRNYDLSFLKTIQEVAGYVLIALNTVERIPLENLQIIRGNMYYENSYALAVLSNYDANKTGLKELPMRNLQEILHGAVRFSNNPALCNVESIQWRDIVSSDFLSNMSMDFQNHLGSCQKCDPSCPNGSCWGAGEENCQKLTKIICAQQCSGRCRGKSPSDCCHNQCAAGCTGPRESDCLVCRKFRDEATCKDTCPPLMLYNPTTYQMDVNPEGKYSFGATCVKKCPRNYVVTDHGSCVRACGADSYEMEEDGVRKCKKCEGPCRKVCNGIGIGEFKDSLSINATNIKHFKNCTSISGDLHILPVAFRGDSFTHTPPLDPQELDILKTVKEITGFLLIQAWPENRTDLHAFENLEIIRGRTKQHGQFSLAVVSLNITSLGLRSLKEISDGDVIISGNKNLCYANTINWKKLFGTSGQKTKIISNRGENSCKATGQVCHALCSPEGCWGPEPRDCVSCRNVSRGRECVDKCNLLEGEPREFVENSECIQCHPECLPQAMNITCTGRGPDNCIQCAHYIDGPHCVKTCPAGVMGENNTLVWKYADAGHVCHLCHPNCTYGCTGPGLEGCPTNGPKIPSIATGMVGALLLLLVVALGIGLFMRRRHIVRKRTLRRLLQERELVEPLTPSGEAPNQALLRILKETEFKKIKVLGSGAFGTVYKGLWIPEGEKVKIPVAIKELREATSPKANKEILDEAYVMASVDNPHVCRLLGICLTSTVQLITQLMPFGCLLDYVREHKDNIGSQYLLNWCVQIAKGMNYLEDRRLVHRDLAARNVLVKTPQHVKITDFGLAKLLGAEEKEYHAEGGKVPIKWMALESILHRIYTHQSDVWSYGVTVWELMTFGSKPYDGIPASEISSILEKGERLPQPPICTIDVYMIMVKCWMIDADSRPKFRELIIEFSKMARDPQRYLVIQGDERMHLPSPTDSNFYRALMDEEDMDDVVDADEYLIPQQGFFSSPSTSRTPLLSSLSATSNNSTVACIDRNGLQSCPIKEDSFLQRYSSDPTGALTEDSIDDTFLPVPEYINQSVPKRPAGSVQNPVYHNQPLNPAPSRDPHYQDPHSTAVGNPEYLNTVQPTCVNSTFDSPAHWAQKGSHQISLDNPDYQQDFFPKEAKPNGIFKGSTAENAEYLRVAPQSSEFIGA
# Experimental: (§1) Kinase activity was measured using the PhosphoSenstechnology (AssayQuant Technologies Inc., Marlborough, MA) as detailed in the Supporting Information. […]
# (§2) Visabron c (4-4) safety by in vitro evaluation using PhosphoSens - CSox based kinase assays:
# (§3) A powerful method was used to measure the activity of recombinant protein kinases using a homogeneous and continuous (kinetic) format, where the level of chelation-enhanced fluorescence (CHEF) that is directly proportional to the amount of phosphorylated, real-time sensors consisting of sulfonamido-oxine (Sox) chromophore, linked to a peptide or protein substrates of selective kinases 6. […]
# (§4) Kinase activity measurements: Kinase activity was measured continuously using the PhosphoSens® technology (AssayQuant Technologies Inc., Marlborough, MA) according to the manufacturers’ recommendations. This one-step homogeneous assay format uses chelation -enhanced fluorescence via optimized substrate sensors containing the unnatural fluorogenic amino -acid Sox. […]
# (§5) Final reaction conditions : Protein kinase activity was determined in 54 mM HEPES, pH 7.5, 1 mM ATP, 1.2 mM DTT, 0.012% Brij-35, 0.52 mM EGTA, 10 mM MgCl2, 1% glycerol, 0.2mg/ml BSA, and 15 μM Sox -based sensor. […]
# JAK3 = target: T3, JAK3 (Homo sapiens, UniProt P52333); assay: PhosphoSens CSox-based kinase assay, JAK3; assay type: biochemical; conditions: 1 mM, but not 0.1 mM; Figure 7
# T3 construct: purchased Carna 08-046
# T3 sequence (P52333 whole entry): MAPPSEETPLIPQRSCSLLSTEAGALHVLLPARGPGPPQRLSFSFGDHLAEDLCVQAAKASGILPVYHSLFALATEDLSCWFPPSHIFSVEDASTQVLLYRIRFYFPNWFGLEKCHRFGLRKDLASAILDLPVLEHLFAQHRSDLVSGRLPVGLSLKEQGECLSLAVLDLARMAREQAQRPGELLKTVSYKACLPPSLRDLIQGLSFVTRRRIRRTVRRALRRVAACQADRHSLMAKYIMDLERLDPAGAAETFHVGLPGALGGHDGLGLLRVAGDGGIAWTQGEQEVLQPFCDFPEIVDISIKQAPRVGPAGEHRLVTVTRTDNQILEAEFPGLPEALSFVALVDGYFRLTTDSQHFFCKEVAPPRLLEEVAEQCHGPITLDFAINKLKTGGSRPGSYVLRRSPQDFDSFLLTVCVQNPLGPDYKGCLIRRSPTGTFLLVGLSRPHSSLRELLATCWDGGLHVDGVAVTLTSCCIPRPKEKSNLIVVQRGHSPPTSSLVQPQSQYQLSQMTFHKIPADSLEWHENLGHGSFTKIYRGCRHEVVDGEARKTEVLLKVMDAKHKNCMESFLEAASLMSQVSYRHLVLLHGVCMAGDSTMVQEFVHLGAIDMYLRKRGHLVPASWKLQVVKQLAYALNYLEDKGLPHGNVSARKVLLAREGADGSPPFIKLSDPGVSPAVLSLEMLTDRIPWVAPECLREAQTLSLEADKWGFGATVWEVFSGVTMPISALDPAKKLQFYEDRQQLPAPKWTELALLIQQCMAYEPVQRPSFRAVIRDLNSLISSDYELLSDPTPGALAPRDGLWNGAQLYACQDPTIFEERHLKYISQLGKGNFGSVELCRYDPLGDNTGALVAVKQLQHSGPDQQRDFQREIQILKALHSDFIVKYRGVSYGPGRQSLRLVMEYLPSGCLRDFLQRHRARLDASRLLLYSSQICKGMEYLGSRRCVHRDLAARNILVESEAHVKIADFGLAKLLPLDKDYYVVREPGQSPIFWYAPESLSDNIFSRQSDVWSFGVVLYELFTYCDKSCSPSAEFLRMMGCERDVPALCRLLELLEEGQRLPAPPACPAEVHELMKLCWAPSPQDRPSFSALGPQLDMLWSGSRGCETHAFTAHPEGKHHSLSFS
# Experimental: as §1, §2, §3, §4, §5
# [2] = test system: panel of 20 tyrosine protein kinases of immune cells; assay type: biochemical; conditions: concentration a hundred-fold higher than the IC50 for inhibition of α4β1 integrin (0.1 mM)
# Experimental: as §1, §2, §3, §4, §5
# [3] = test system: experimental autoimmune encephalomyelitis (EAE); assay: MOG-induced EAE in C57BL/6 mice; assay type: in vivo, C57Bl/6 female mice
# Experimental: EAE was induced in C57bl/6 mice by immunization with MOG/CFA and injection of pertussis toxin as described in the Experimental Section. The body weight, neurological scores, and disease incidence were monitored daily for 35 days. Immunized mice (n = 10–14 in each group) were treated (i.p. injection) at time points indicated by arrows. Histology was performed on day 35 on all groups. Data shown are the mean ± SEM, evaluated by the nonparametric Kruskal–Wallis test followed by a Dunn’s postanalysis. All p-values <0.05 were considered statistically significant. (A) Neurological clinical score. Visabron c (4–4) (green) at a cumulative dose of 25 mg/kg (5 mg/kg every other day, for 8 days) and natalizumab (orange) at a cumulative dose of 120 mg/kg (24 mg/kg every other day, for 8 days). […] (E) Dose–response of treatment with visabron c (4–4). Inset: Mean neurological score of the different treatment groups at disease onset (days 15–17). […] (F) Inflammatory infiltrates (blue) in the spinal cord were evaluated by cell counting in H&E stained slices.
# C57Bl/6 female mice, 8 weeks old, obtained from the Harlan animal breeding center were used in the study and were maintained in the SPF unit of the Faculty of Medicine. EAE was induced by s.c. injection of 0.2 mL/mouse emulsion containing 200 μg of MOG35–55 peptide in saline and an equal volume of 5 mg/mL Complete Freund’s Adjuvant (CFA) containing 1 mg/mL heat-killed M. tuberculosis (H37Ra; Difco Laboratories, Detroit, MI) . The emulsification was made from equal parts of oil and liquid portions (1:1) in two syringes connected to each other with Leur lock, transferred to an insulin syringe, and 0.2 mL was injected to the right flank of each mouse. On the day of immunization, pertussis toxin (200 ng/mL) was injected i.p. at a volume dose of 0.2 mL/mouse. The injection of the pertussis toxin (i.p) was repeated after 48 h to boost the immune recognition reaction. From day four, natalizumab and Visabron c (4–4) were injected i.p. each other day, five times, and the weight, the neurological score and the disease incidence of the mice were monitored until 35 days after immunization. EAE scoring system: mice were observed daily for the appearance of neurological symptoms, which were scored as follows: 0, asymptomatic; 1, partial loss of tail tonicity; 1.5, limp tail; 2, hind limb weakness (right reflex); 3, ataxia; 4, early paralysis; 5, full paralysis; and 6, moribund or dead. The disease incidence was calculated as a percentage of the ratio of the number of new diseased mice per number of living mice at each time-point. In experiments to estimate cell infiltration in the spinal cord at 35 days postimmunization, the mice were euthanized by cervical dislocation and lumbar spinal cords were collected.
# [4] = human, in vivo; cited from earlier work
# [5] = blood 24 hours after i.v. 500 mg/kg, n=5
compound,measurement,setting,value
CSCC[C@@H]1NC(=O)[C@H]([C@@H](C)O)NC(=O)CN(C(=O)[C@@H](N)CCCCN)CCCCNC(=O)NCCCCN(CC(=O)N[C@@H](CC(C)C)C(N)=O)C(=O)[C@H](CC(=O)O)NC(=O)[C@H](CC(C)C)NC1=O [visabron c (4–4)] (H-K[Nlys]TMLD[Nlys]L-NH2; linker 2-7 via CO),"Acute tolerability, single dose","[1]; 24 h after i.v. injection, C57BL/6 male mice",500 mg/kg
same,Blood count and electrolytes vs control mice,"[1]; 24 hours from i.v. injection, dose printed 250 mg/kg in this block",No significant differences
same,ALP,[1]; [5],84±7 U/L
same,ALT,[1]; [5],41±4 U/L
same,AST,[1]; [5],92±11 U/L
same,Albumin,[1]; [5],2.8±0.2 gr/dL
same,BUN,[1]; [5],14 ± 3.2 mg/dL
same,Calcium,[1]; [5],9.8 ± 1.2 mg/dL
same,Chloride,[1]; [5],105 ± 9.2 mmol/L
same,Cholesterol,[1]; [5],105 ± 8.6 mg/dL
same,Creatinine,[1]; [5],0.3 ± 0.07 mg/dL
same,Glucose,[1]; [5],279 ± 31 mg/dL
same,HCT,[1]; [5],45±2.5%
same,HGB,[1]; [5],14.8 ± 0.5 g/dL
same,MCH,[1]; [5],14.8 ± 0.6 pg
same,MCHC,[1]; [5],29 ± 1.3 g/dL
same,MCV,[1]; [5],48 ± 2.5 fL
same,MPV,[1]; [5],5 ± 0.9 fL
same,RBC,[1]; [5],9.0±0.9 m/ µL
same,RDW,[1]; [5],17.1±0.4%
same,WBC,[1]; [5],7.9±0.8 k/µL
same,Inhibitory effect on Lck,"Lck kinase; 100 μM, data not shown",not observed
same,Inhibition of Lck kinase activity,"Lck kinase; 1 mM, Figure 6",strongly inhibited
same,inhibition at 1000 µM,EGFR,25 to 40%
same,inhibition at 1000 µM,JAK3,25 to 40%
same,Targeting of leukocyte tyrosine protein kinases,[2],did not target
natalizumab: clinical-grade monoclonal antibody anti-α4β1 produced by Biogen Co. [reference compound],EAE-associated body weight decrease,"[3]; 13–16 to 35 days postimmunization, visabron c (4–4) cumulative 25 mg/kg, natalizumab 120 mg/kg i.p., Figure 3B",significantly decreased
same,Disease incidence vs EAE disease group,[3]; Figure 3C,lower disease incidence
same,Cumulative neurological scores vs EAE/PBS group,"[3]; at 35 days postimmunization, Figure 3D",significantly decreased
same,Inflammatory cell infiltration in spinal cord (H&E cell counting),"[3]; day 35, Figure 3F",significantly reduced
same,Increase in neurological score vs EAE group,"[3]; onset (13–16 days) to 35 days postimmunization, i.p., visabron c (4–4) cumulative 25 mg/kg, natalizumab cumulative 120 mg/kg, Figure 3A",significantly lower
same,Multiple sclerosis patients with anti-natalizumab-neutralizing antibodies,[4],6–9%
same,Patients with neutralizing antibodies toward natalizumab that cause loss of drug efficacy,[4],about 6%
